Key:
[1] = molecular target: T1, Farnesyl pyrophosphate synthase (Homo sapiens) (UniProt P14324); experiment: Inhibition of farnesyl diphosphate synthase at 30 nM
T1 sequence (whole entry): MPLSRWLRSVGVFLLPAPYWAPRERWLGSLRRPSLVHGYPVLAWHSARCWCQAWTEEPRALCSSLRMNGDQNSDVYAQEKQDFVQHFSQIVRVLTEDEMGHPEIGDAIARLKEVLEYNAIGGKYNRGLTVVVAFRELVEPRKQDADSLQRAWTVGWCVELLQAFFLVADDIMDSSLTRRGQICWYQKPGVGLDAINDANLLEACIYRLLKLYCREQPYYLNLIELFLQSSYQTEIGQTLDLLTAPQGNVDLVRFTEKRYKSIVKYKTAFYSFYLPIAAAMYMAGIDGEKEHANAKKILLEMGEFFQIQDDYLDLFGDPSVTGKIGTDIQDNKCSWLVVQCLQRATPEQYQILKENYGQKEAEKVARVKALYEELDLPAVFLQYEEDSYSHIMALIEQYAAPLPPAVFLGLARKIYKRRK

Dictyostelium discoideum = experiment: Antimicrobial activity against Dictyostelium discoideum; type: functional, organism-based
[2] = molecular target: T1, Farnesyl pyrophosphate synthase (Homo sapiens); experiment: Inhibition of farnesyl diphosphate synthase at 35 nM

inhibition [1] [%] | IC50 (Dictyostelium discoideum) [µM] | inhibition [2] [%] | SMILES
58 | 30 | – | O=P(O)(O)C(O)(CC1CCCNC1)P(=O)(O)O (stereo unspecified)
– | < 240 | – | O=P(O)(O)C(O)(Cc1ccccc1)P(=O)(O)O
– | 18 | – | Nc1ccccc1CC(O)(P(=O)(O)O)P(=O)(O)O
– | 27 | 59 | CC[n+]1cccc(CC(P(=O)([O-])O)P(=O)(O)O)c1 (stereo unspecified)
